Where two headings read alike, the source gives them in different places.
Biological target: T1, horse serum butyrylcholinesterase (BChE) (Equus caballus, UniProt P81908)
T1 construct: native enzyme from horse serum, lyophilised, commercial (Sigma-Aldrich), untagged
Assay: Ellman assay, global fit to mixed inhibition model
Assay type: biochemical
Settings: for Ki: read-out: Ki ± SEM (μM) ^1
Source text: Ellman assay, global fit to mixed inhibition model on horse serum butyrylcholinesterase (BChE)

T1 sequence (P81908 whole entry): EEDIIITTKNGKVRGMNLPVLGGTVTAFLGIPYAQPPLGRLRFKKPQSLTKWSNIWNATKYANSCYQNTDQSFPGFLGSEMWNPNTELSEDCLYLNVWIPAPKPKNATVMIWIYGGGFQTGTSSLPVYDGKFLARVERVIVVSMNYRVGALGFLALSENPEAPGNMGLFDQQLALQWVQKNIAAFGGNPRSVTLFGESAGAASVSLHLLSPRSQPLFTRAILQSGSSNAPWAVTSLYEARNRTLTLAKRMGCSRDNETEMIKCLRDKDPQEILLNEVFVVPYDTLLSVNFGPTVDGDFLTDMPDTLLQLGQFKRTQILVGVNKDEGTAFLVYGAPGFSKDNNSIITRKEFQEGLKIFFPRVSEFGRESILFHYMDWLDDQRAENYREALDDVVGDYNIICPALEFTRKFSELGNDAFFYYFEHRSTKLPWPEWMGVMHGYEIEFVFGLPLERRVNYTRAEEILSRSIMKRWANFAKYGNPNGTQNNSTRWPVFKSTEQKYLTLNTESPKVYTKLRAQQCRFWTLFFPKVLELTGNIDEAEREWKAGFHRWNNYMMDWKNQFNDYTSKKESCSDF

Question: For `OC[C@H]1O[C@@H](OCCn2cnc3ccccc32)[C@H](O)[C@@H](O)[C@@H]1O` [compound 5, N1-[2-(β-D-glucopyranozyloxy)ethyl]benzimidazole], which Ki (acetylthiocholine 0.04–1 mM, DTNB 0.3 mM, 0.1 M sodium phosphate pH 7.4, 25 °C, mixed) is on record?
Answer: Its Ki is 16 ± 1.6 µM.

Question: `OC[C@H]1O[C@@H](OCC[n+]2cn(Cc3ccccc3)c3ccccc32)[C@H](O)[C@@H](O)[C@@H]1O` [compound 7, N1-benzyl-N3-[2-(β-D-glucopyranozyloxy)ethyl]benzimidazolium bromide] was tested. Which Ki did it give?
Answer: The Ki was 52 ± 3 µM.

Question: Which “Ki ± SEM (μM) ^1” value (acetylthiocholine 0.04–1 mM, DTNB 0.3 mM, 0.1 M sodium phosphate pH 7.4, 25 °C, unreliable (extrapolated beyond tested 15–170 μM)) does the source give for `OC[C@H]1O[C@@H](OCCn2cnc3ccccc32)[C@H](O)[C@@H](O)[C@H]1O` [compound 12, N1-[2-(β-D-galactopyranozyloxy)ethyl]benzimidazole] here?
Answer: Its value is 782 ± 306 µM.

Question: With `OC[C@H]1O[C@@H](OCC[n+]2cn(Cc3ccccc3)c3ccccc32)[C@H](O)[C@@H](O)[C@H]1O` [compound 14, N1-benzyl-N3-[2-(β-D-galactopyranozyloxy)ethyl]benzimidazolium bromide] as the compound, how does the Ki read?
Answer: The Ki was 26 ± 2.7 µM.
